system: Smad2/3 phosphorylation caused by TGF-β1 stimulation; assay: Smad2/3 phosphorylation inhibitory activity test; assay type: cell-based; conditions: Homo sapiens; A549 cells; compound 2 hours before TGF-β1 1 ng/ml, 1 hour; anti-Smad2/3 immunoprecipitation, Western blotting
Procedure: A549 cells were seeded to a plate, and cultured overnight in a Ham's F-12 medium supplemented with 10% FBS. This medium was replaced with the same medium containing the compounds or not containing the compounds, and after incubated another 2 hours, TGF-01 was added thereto so as to make its final concentration 1 ng/ml, and further incubated another 1 hour. After completion of incubation, the medium was removed, and the cells were washed with PBS and then lysed by a RIPA solution. The cell lysate solution was subjected to immunoprecipitation using anti-Smad2/3 antibody, and then Western blotting was performed. Using a rabbit anti-phosphorylated serine antibody as a primary antibody, a HRP-labeled anti-rabbit IgG antibody as a secondary antibody, and ECL Western blotting detection reagents as detection reagents, light emitting amounts were measured using Limi-Imager F1 (Roche Diagnostics) etc.
Following the above described methods, the inhibitory activities of the respective compounds against Smad2/3 phosphorylation caused by TGF-β1 stimulation were measured, and IC50 values were calculated.

Structure (SMILES)	IC50 [nM]
Cc1csc(-c2nc(-c3ccc(C(N)=O)cc3)[nH]c2-c2ccc3ncsc3c2)n1 [Compound 50]	80
Cc1csc(-c2nc(C)[nH]c2-c2ccc3ncsc3c2)n1 [Compound 52]	24
Cc1csc(-c2nc(N)[nH]c2-c2ccc3ncsc3c2)n1 [Compound 68]	31
Cc1csc(-c2nc(C3CCC(=O)CC3)[nH]c2-c2ccc3ncsc3c2)n1 [Compound 80]	89
CCCC(O)CCc1nc(-c2nc(C)cs2)c(-c2ccc3ncsc3c2)[nH]1 (stereo not shown) [Compound 81]	52
Cc1csc(-c2nc(C3CCOCC3)[nH]c2-c2ccc3ncsc3c2)n1 [Compound 83]	99
COCCCCc1nc(-c2nc(C)cs2)c(-c2ccc3ncsc3c2)[nH]1 [Compound 87]	38
CCCNC(=O)CCCCc1nc(-c2nc(C)cs2)c(-c2ccc3ncsc3c2)[nH]1 [Compound 171]	89
Cc1csc(-c2nc(CN3CCOC3=O)[nH]c2-c2ccc3ncsc3c2)n1 [Compound 197]	92

Next, values leading:

IC50 [nM]	Structure (SMILES)
45	CCCCc1nc(-c2nc(C)cs2)c(-c2ccc3ncsc3c2)[nH]1 [Compound 57]
32	CCCC(=O)NCc1nc(-c2nc(C)cs2)c(-c2ccc3ncsc3c2)[nH]1 [Compound 105]
67	COCC(=O)NCc1nc(-c2nc(C)cs2)c(-c2ccc3ncsc3c2)[nH]1 [Compound 124]
107	Cc1csc(-c2nc(CNC(=O)C3CCOCC3)[nH]c2-c2ccc3ncsc3c2)n1 [Compound 129]
126	CCNC(=O)NCc1nc(-c2nc(C)cs2)c(-c2ccc3ncsc3c2)[nH]1 [Compound 175]
77	Cc1csc(-c2nc(CNC(=O)N(C)C)[nH]c2-c2ccc3ncsc3c2)n1 [Compound 176]
38	COC(=O)NCc1nc(-c2nc(C)cs2)c(-c2ccc3ncsc3c2)[nH]1 [Compound 186]
31	C#CCOC(=O)NCc1nc(-c2nc(C)cs2)c(-c2ccc3ncsc3c2)[nH]1 [Compound 191]
93	CCNC(=O)OCc1nc(-c2nc(C)cs2)c(-c2ccc3ncsc3c2)[nH]1 [Compound 198]
70	Cc1csc(-c2nc(COC(=O)N(C)C)[nH]c2-c2ccc3ncsc3c2)n1 [Compound 199]
42	CCCC(=O)CCc1nc(-c2nc(C)cs2)c(-c2ccc3ncsc3c2)[nH]1 [Compound 201]

system: not given; assay: not given; conditions: not given

Structure (SMILES)	melting point
N#Cc1ccc(-c2nc(-c3nccs3)c(-c3ccccn3)n2O)cc1 [Compound 202]	248 to 251 °C (dec.)
Cc1csc(C(=O)C(=O)c2ccc3c(c2)OCO3)n1 [Compound 203]	131.5 to 132.5 °C
Cc1csc(C(=O)C(=O)c2ccc(F)cc2)n1 [Compound 206]	75 to 77 °C
Cc1csc(C#Cc2ccc3c(c2)OCO3)n1 [Compound 217]	111.5 to 112 °C
Cc1csc(C#Cc2ccc(F)cc2)n1 [Compound 219]	82 to 83 °C
Cc1csc(-c2nc(C3CCC(=O)N3)[nH]c2-c2ccc3ncsc3c2)n1 (stereo not shown) [Compound 229]	273 to 275 °C (dec.)
Cc1csc(-c2nc(C3CCC(=O)N3)[nH]c2-c2ccc3ncsc3c2)n1 (stereo not shown) [Compound 230]	263 to 268 °C (dec.)
COc1ccc(Cn2c(C)nc(-c3nc(C)cs3)c2-c2ccc3ncsc3c2)cc1 [Compound 231]	144 to 145 °C
Cc1csc(-c2nc(C)n(Cc3ccc(O)cc3)c2-c2ccc3ncsc3c2)n1 [Compound 232]	215.5 to 218.5 °C
Cc1csc(-c2nc(C)n(Cc3ccc(OCCN(C)C)cc3)c2-c2ccc3ncsc3c2)n1 [Compound 233]	146.5 to 148 °C
COCCOc1ccc(Cn2c(C)nc(-c3nc(C)cs3)c2-c2ccc3ncsc3c2)cc1 [Compound 234]	129.5 to 131 °C
Cc1nc(-c2nc(C(F)(F)F)cs2)c(-c2ccc3ncsc3c2)[nH]1 [Compound 244]	190.5 to 192 °C
O=C(C(=O)c1nc(C(F)(F)F)cs1)c1ccc2ncsc2c1 [Compound 251]	163.5 to 164.5 °C

Other lines, results leading:

melting point	Structure (SMILES)
223.5 to 224 °C	COCC(=O)NCc1nc(-c2nc(C)cs2)c(-c2ccc3ncsc3c2)[nH]1 [Compound 124]
197 to 197.5 °C	Cc1csc(-c2nc(CNC(=O)C3CCOCC3)[nH]c2-c2ccc3ncsc3c2)n1 [Compound 129]
205.5 to 206 °C	Cc1csc(-c2nc(CNC(=O)N3CCOCC3)[nH]c2-c2ccc3ncsc3c2)n1 [Compound 185]
183 to 184 °C	CCOC(=O)NCc1nc(-c2nc(C)cs2)c(-c2ccc3ncsc3c2)[nH]1 [Compound 187]
202 to 204 °C (dec.)	Cc1csc(-c2nc(CNC(=O)OCCCl)[nH]c2-c2ccc3ncsc3c2)n1 [Compound 188]
161 to 162 °C	CCCCOC(=O)NCc1nc(-c2nc(C)cs2)c(-c2ccc3ncsc3c2)[nH]1 [Compound 193]
142.5 to 144 °C	Cc1csc(-c2nc(CNC(=O)OCC(C)C)[nH]c2-c2ccc3ncsc3c2)n1 [Compound 194]
177.5 to 178.5 °C	CCCCCOC(=O)NCc1nc(-c2nc(C)cs2)c(-c2ccc3ncsc3c2)[nH]1 [Compound 195]
170.5 to 171.5 °C	Cc1csc(-c2nc(CNC(=O)OCC(C)(C)C)[nH]c2-c2ccc3ncsc3c2)n1 [Compound 196]
181.5 to 182 °C	Cc1csc(-c2nc(COC(=O)N(C)C)[nH]c2-c2ccc3ncsc3c2)n1 [Compound 199]
158 to 159.5 °C	CNC(=O)OCc1nc(-c2nc(C)cs2)c(-c2ccc3ncsc3c2)[nH]1 [Compound 235]
239 to 239.5 °C	CNC(=O)NCc1nc(-c2nc(C)cs2)c(-c2ccc3ncsc3c2)[nH]1 [Compound 238]
220.5 to 222 °C	Cc1csc(-c2nc(CNC(=O)C3CCCCO3)[nH]c2-c2ccc3ncsc3c2)n1 (stereo not shown) [Compound 241]
